Entries after “also recorded” stand apart in the source; their conditions may differ.
Assays:
NR1H3 = molecular target: T1, NR1H3 (Homo sapiens, UniProt Q13133); experiment: AP assay: MPCs infected with Ad-NR1H3 and treated with ligand; type: cell-based; conditions: for up-regulation of endogenous alkaline phosphatase (AP) activity, dose-response: MPCs infected with Ad-NR1H3, ligand at different concentrations
T1 construct: amplification of the complete open reading frame from ATG start codon to the stop codon of drugable genes; expressed in transfected cells; host or cells: primary human mesenchymal progenitor cells (MPCs), transduced with Ad5-NR1H3 and Ad-hCAR
T1 sequence (Q13133 1-447): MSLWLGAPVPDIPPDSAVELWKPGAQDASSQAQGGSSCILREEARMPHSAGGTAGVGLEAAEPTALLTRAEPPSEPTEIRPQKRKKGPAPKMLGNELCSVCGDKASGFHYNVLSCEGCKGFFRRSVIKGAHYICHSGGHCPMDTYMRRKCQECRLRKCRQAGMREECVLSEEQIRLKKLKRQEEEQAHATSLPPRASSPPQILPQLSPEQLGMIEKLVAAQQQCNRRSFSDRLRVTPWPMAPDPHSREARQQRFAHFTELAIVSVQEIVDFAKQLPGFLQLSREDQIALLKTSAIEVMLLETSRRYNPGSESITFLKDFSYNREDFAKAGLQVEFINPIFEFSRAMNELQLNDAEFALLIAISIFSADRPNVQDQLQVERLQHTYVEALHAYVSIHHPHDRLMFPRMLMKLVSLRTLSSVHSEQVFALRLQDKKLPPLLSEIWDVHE
Description: Mesenchymal progenitor cells (MPCs) differentiate into osteoblasts in the presence of appropriate factors (e.g. BMP2). An assay to screen for such factors is developed by monitoring the activity of alkaline phosphatase (AP) enzyme, an early marker in the osteoblast differentiation program. MPCs are seeded in 384 well plates and simultaneously co-infected one day later with adenoviruses encoding the human coxsackie and adenovirus receptor (hCAR; Ad-hCAR) and individual adenoviruses (Ad-cDNA) from the arrayed adenoviral knock-in collection containing cDNA sequences corresponding to genes from “drugable” classes like GPCR's, kinases, proteases, phosphodiesterases and nuclear hormone receptors (the FLeXSelect collection). The majority of these cDNAs are obtained by a PCR-based approach. Briefly, PCR primers are designed for amplification of the complete open reading frame from ATG start codon to the stop codon of drugable genes, based on sequence data present in the RefSeq database. Primers are mixed in an arrayed format at a PCR ready concentration in 96 well plates. As a template for the PCR reactions, placental, fetal liver, fetal brain and spinal cord cDNA libraries are used (from Invitrogen or Edge Biosystems). For the genes encoded by a single exon, PCR reactions are also performed on human genomic DNA. After the amplification reactions, the PCR products are purified with a 96-well PCR clean-up system (Wizard magnesil, Promega, Madison, Wis., USA), digested with the appropriate restriction enzymes (AscI, NotI or SalI restriction sites are included in the primers) and directly cloned into the adenoviral adapter plasmid pIspAdAdapt-10-Zeo (described in U.S. Pat. No. 6,340,595) using DNA ligation kit version 2 (TaKaRa, Berkeley, CA, USA). After a transformation and selection step, multiple clones per gene, one of which is sequence verified, are used for the preparation of plasmid DNA and subsequent generation of adenovirus according to the procedure described in WO99/64582.
Cellular AP activity is determined 6 days after the infection (or ligand addition—see below). The principle of the assays is depicted in FIG. 2. […] Six days after the start of infection or treatment with a ligand, endogenous alkaline phosphatase activity is measured following addition of 4-methylumbelliferyl […] (MUP) substrate.
The stocks of the Ad-control-viruses are generated in 96 well plates (control plate). […] Up-regulation of alkaline phosphatase is read at 6 days post infection (6 dpi): 15 μl 4-Methylumbelliferyl-phosphate (MUP, Sigma) is added to each well, the plates are incubated for 15 min at 37° C. and monitored for AP activity using a fluorescence plate reader (Fluostar, BMG). […]

primary human MPCs = experiment: Mineralization assay (Alizarin RedS / Von Kossa); type: cell-based; conditions: MPCs with NR1H3 and T0901317
Description: On day one, primary human MPCs are seeded in a 6 well plate (Costar or Nunc) at a density of 50,000 to 250,000 cells per well, typically at 100,000 cells per well. MPCs are co-infected one day later with AdC15-hCAR (MOI 750) and Ad-control (eGFP or BMP2) or hit-virus (Ad5) (at MOIs between 250 and 20,000, typically at MOIs 5000 and 2500). For Ad-GPCR or Ad-NHR experiments, cells can additionally be treated with specific ligands. These are added at the EC50 concentration and at concentrations 5-10 times higher and lower. Ligands are added 2-3 times per week. Medium supplemented with 100 μg/ml L-ascorbate and 10 mM beta-glycerophosphate, is refreshed 2 times a week. 20 to 30 days after the start of the experiment, cells are stained with Von Kossa stain or with Alizarin RedS stain.
The Alizarin RedS staining is carried out as follows: cells are washed once with PBS, fixed with 10% paraformaldehyde for 45 minutes at 4° C., and washed 2 times with PBS. Cells are incubated with 40 mM aqueous Alizarin RedS solution, pH 4.1-4.3 for 10 minutes followed by 5 washes with distilled water. Staining is evaluated and photographed using white light.

SMILES	up-regulation of endogenous alkaline phosphatase (AP) activity, dose-response (NR1H3)	induction of AP activity in different MPC isolates (NR1H3; MPCs from 4 different donors, Ad-NR1H3 MOI 2500 + T0901317, 6 days)	mineralization (primary human MPCs)
O=C(O)Cc1cccc(OCCCN(Cc2cccc(C(F)(F)F)c2Cl)CC(c2ccccc2)c2ccccc2)c1 [GW3965, 2-(3-(3-(N-(2-chloro-3-(trifluoromethyl)benzyl)-N-(2,2-diphenylethyl)amino)propoxy)phenyl)acetic acid]	dose-response relation is observed; also recorded: AP activity is up-regulated; also recorded: Dose-dependent up-regulation of AP activity		
CC(=O)Oc1ccc2c(c1)[C@@]1(C)CCC[C@](C)(C(=O)OC(=O)[C@@]3(C)CCC[C@]4(C)c5cc(OC(C)=O)ccc5CC[C@@H]34)[C@@H]1CC2 [APD, acetyl podocarpic dimer]	dose-response relation is observed; also recorded: AP activity is up-regulated; also recorded: Dose-dependent up-regulation of AP activity		
O=S(=O)(c1ccccc1)N(CC(F)(F)F)c1ccc(C(O)(C(F)(F)F)C(F)(F)F)cc1 [T0901317, N-(2,2,2-trifluoroethyl)-N-[4-[2,2,2-trifluoro-1-hydroxy-1-(trifluoromethyl)ethyl]phenyl]-benzenesulfonamide]	dose-dependently increase the up-regulation of the endogenous alkaline phosphatase activity; also recorded: AP activity is up-regulated; also recorded: score well	induce AP activity to similar extents in all 4 MPC isolates tested; also recorded: induce AP activity independent of the MPC isolate	score well

Source: patent US20060020036A1, “Methods and compositions to promote bone homestasis” (priority 2004, published 2006)
